Entries after “also recorded” stand apart in the source; their conditions may differ.
What was measured:
Format in all cases: cell-based
[1] = target: T1, M2 muscarinic acetylcholine receptors (Homo sapiens, UniProt P08172); experiment: G protein biosensor FRET (CY/CC) imaging in CHO cells stably expressing M2 receptor; details: for FRET signal intensity on addition of the molecule: 100 μM, α-CFP/β-YFPγ biosensor; for FRET signal intensity on repeated addition of agonist and antagonist: Go biosensor, same cell, repeated additions; for CC emission intensity / CY emission intensity: carbachol 100 μM, then atropine 100 μM
T1 construct: expressed in transfected cells
T1 sequence (P08172 1-466): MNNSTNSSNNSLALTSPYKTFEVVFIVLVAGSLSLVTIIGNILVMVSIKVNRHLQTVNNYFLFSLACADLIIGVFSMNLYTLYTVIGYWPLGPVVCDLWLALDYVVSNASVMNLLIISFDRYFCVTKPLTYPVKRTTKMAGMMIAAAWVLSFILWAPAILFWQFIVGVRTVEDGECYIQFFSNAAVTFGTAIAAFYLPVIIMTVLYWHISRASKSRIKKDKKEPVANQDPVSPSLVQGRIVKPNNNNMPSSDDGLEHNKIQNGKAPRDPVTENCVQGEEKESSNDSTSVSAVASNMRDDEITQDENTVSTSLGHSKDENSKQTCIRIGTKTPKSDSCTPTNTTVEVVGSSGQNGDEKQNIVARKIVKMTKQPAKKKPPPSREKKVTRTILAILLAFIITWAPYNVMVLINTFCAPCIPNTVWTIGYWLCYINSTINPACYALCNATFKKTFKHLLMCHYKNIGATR
Description: All were transferred to pDEST12.2 mammalian expression vectors following the manufacturer's instructions (Invitrogen). […] Competent CHO cells expressing M2 were competently transfected with three pDEST12.2 carrying αo-CFP, β1-YFP and γ5. Stable transfectants were selected with G418 and coexpressors were isolated by flow cytometry and confirmed by differential fluorescence microscopy.
(§1) Microscopy, image acquisition and FRET analysis (i.e. image capture, recording and analysis) were carried out as follows (generally following the illustration in FIG. 3). Cells were seeded on glass coverslips (25 mm #1 from Warner Instruments) in 35 mm dishes and cultured overnight for imaging. Coverslips containing cells were mounted in a perfusion chamber of 0.36 ml internal volume (RC-21BR from Warner Instrument Corporation, 1141 Dixwell Ave., Hamden, Conn. 06514) containing Hank's Buffered Saline Solution (HBSS) supplemented with 10 mM Hepes pH 7.4 and 1 mg glucose/ml. The perfusion chamber was stage-mounted in an upright Zeiss Axioscope fluorescence microscope.
Agonists, antagonists or a molecule in the HBSS solution were injected manually (or using an automated valve based system driven pneumatically or by gravity) at a rate of about 2 ml/min for 45 seconds through a secondary inlet of the chamber. Images were acquired at the indicated times. Cells were illuminated with a 50 W mercury lamp (or a 100 W mercury lamp) through a 20% neutral density filter. The filter wheels were run by a Sutter Lambda 10-2 device, a high speed excitation filter wheel that utilizes a direct stepper motor. (Sutter Instrument Company, 51 Digital Drive, Novato, Calif. 94949). In an aspect, power to operate instruments such as the microscope, pumps, motor(s), camera(s), computer(s) control system is supplied by 110 volt electric which is supplied to the instruments and turned on at the startup.
Filters were used in combination with appropriate beam splitters in the filter cube. For CC (cyan) images: D436/20 excitation (x), D480/40 emission (m) and 455DCLP beam splitter; for CY (FRET) images: D436/20x, D535/30m and 455DCLP beam splitter; for YY (yellow) images: the filters D500/20x, D535/30m and 515LP beam splitter. All filters were from Chroma. Images were acquired using a Hamamatsu CCD Orca-ER Camera with 4×4 binning. Exposure times were 1 sec for each CC or CY image. Images were acquired and captured of the FRET signal every 15 sec for a total of 4 or 6 minutes and stored as 12-bit gray scale image-stacks using MetaVue/Metamorph software (Universal Imaging Corporation, 402 Boot Road, Downington, Pa. 19335). Both camera and filter wheels were controlled peripherally using MetaVue from a Dell Computer Workstation (Dell Computer, Houston, Tex.) Images were processed using Metamorph (Universal Imaging) in a Dell Computer Workstation. […] Average intensities in these regions were measured. Maximum intensity per pixel in selected regions were ensured to be lower than the maximum value on the available 12-bit gray scale (4095). Ratios of the CY over CC intensities from these regions were plotted to obtain the FRET profiles.
Agonist concentration dependence of the decrease in the FRET signal: Images (emission spectra) of live functional biosensor cells were captured and recorded as above for about six minutes. […] The regression lines were drawn using GraphPad (Prizm). The percentage of activation by submaximal doses was determined by the formula 100(Rx−Ro)/(Rm−Ro). Rx, Ro and Rm are the numerical values of the respective regression lines at the 210 second elapsed time point where Ro was the initial baseline, Rx was the submaximal response and Rm was the maximal response.

[2] = tested on: human adenosine receptors; experiment: G protein biosensor FRET profile in biosensor cells expressing adenosine receptor; details: 50 μM
Description: as §1
(§2) Agonists, antagonists or a molecule in the HBSS solution were injected manually (or using an automated valve based system driven pneumatically or by gravity) at a rate of about 2 ml/min for 45 seconds through a secondary inlet of the chamber. Images were acquired at the indicated times. Cells were illuminated with a 50 W mercury lamp (or a 100 W mercury lamp) through a 20% neutral density filter. The filter wheels were run by a Sutter Lambda 10-2 device, a high speed excitation filter wheel that utilizes a direct stepper motor. […]
(§3) Filters were used in combination with appropriate beam splitters in the filter cube. […] Average intensities in these regions were measured. […]

[3] = target: T1, M2 muscarinic acetylcholine receptors; experiment: G protein biosensor FRET (CY/CC) imaging in CHO cells stably expressing M2 receptor; details: biosensor with CFP tagged α, YFP tagged γ, untagged β subunit
[4] = target: T2, human serotonin receptors (Type 1A) (Homo sapiens, UniProt P08908); experiment: G protein biosensor FRET profile in biosensor cells expressing serotonin receptors
T2 construct: expressed in transfected cells; host or cells: Biosensor cells
T2 sequence (P08908 1-422): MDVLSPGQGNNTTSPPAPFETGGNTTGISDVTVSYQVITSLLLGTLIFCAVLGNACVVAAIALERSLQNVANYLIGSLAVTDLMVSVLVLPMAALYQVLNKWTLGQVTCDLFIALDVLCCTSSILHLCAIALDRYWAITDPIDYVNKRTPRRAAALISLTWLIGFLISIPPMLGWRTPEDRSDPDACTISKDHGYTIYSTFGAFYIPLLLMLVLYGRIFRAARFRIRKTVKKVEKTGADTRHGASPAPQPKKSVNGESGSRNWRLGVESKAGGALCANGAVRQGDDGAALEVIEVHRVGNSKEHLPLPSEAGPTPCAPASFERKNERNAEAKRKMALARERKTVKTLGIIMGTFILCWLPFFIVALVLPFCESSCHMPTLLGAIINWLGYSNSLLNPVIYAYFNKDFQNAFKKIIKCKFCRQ
Description: as §1, §2, §3

CC(C)NCC(O)c1ccc(O)c(O)c1 (centres unmarked) [Isoproterenol, isoproterenol]
FRET signal intensity on addition of the molecule [1]: no effect on FRET signal intensity

OC[C@H]1O[C@@H](n2cnc3c(NC4CCCCC4)ncnc32)[C@H](O)[C@@H]1O [adenosine N6-Cyclohexyl]
FRET signal intensity on addition of agonist [2]: decreased the FRET signal intensity significantly

CN1[C@@H]2CC[C@H]1C[C@@H](OC(=O)C(CO)c1ccccc1)C2 (some centres unmarked) [atropine]
FRET signal intensity on repeated addition of agonist and antagonist [1]: increases | carbachol-induced loss of FRET after pretreatment with antagonist ([1]; atropine 10 μM present, carbachol 100 μM added): no longer elicited the loss of FRET | FRET signal intensity on addition of antagonist after agonist ([1]; atropine 100 μM after carbachol 100 μM): FRET signal intensity increases strikingly | CC emission intensity [1]: CC emission intensity decreases | CY emission intensity [1]: increases

C[N+](C)(C)CCOC(N)=O [carbachol]
FRET signal intensity on addition of the molecule [1]: reduced FRET signal intensity; also recorded: FRET signal intensity decreases | FRET signal intensity on repeated addition of agonist and antagonist [1]: decreases | CC emission intensity [1]: CC emission intensity increases | CY emission intensity [1]: CY emission intensity decreases | FRET signal intensity on addition of agonist [3]: decrease in FRET signal intensity

CC(C)(C)NCC(O)COc1cccc2[nH]c(C#N)cc12 (centres unmarked) [cyanopindolol]
FRET signal intensity on addition of antagonist after agonist ([4]; cyanopindolol 150 μM after serotonin 20 μM): increase in the FRET signal intensity

NCCc1c[nH]c2ccc(O)cc12 [serotonin]
FRET signal intensity on addition of agonist ([4]; 20 μM): decreased the FRET signal intensity significantly; also recorded: decrease in the FRET signal intensity
